Data set [1] relates to helminth infestation diseases. Briefly: Helminthicide action in laboratory and field conditions on farm animals. The class given is in vivo, sheep, cows, and other farm animals. From the text: The helminthicide action has been studied in laboratory and field conditions on sheep, cows, and other farm animals of different age and having various helminth infestation diseases. The course of treatment comprises a single oral administration of the preparation in spring and a repeated single administration in autumn. The preparation efficiency is 95 to 100% for the cured animals.

Data set [2] can be described thus: Lethal dose / toxicity in farm animals. Type of data set: in vivo. Also noted: lethal dose LD50 / LD100: unit not given here.
For data set [3] the following is noted: meat, milk, and wool. The source says:
The known preparations are efficient only in respect to the imaginal forms of certain helminth infestation diseases. The novel preparation based on thiodiphenylamine cupric chloride complex salt is not toxic and is convinient in use.

“complex salt of thiodiphenylamine cupric chloride”: in data set [1] (pre-imaginal and imaginal forms), the “efficiency for curing various helminth infestation diseases in pre-imaginal and imaginal forms” value is “highly efficient for curing various helminth infestation diseases in pre-imaginal and imaginal forms”. In data set [1] (single oral administration in spring and repeated single administration in autumn), the “preparation efficiency for the cured animals” value was 95 to 100%. In data set [2] (all varieties of farm animals), the LD100 was 1,200 and the “lethal dose LD50” value is on record as 1,000. Besides, the toxicity result in data set [2] (in vivo) is “not toxic”. The “productivity of farm animals” value in data set [3] is “enhances productivity of farm animals”.

Source of the values: patent US4016272A, “Anthelmintic thiodiphenylamine cupric chloride complex salt” (priority 1975, dated 1977).
